# Measured values taken from patent US5753516A, “Screening method for ligands of the EBI-1 receptor” (priority 1995, dated 1998).
# Tests used:
# [1] = system: NALM 6 cells; assay: cAMP accumulation in NALM 6 cells; type: cell-based, human; conditions: forskolin-activated NALM 6
# Experimental: FIG. 16. […] NALM 6 cells (2×10^6 /ml) were stimulated with forskolin or forskolin+MET-ENK at the concentrations indicated and in the presence of 1 mM isobutyl-1-methylxanthine. Cyclic AMP was assayed after 15 minutes at 37° C. Data are expressed as fmoles of cAMP/minute. Samples were processed as previously described Cobb, Heagy, Dunner et al., 1980; cAMP was measured using a commercial RIA kit.
# [2] = system: human T cells; assay: Migration of human peripheral blood T cells; type: cell-based
# [3] = system: NK cells and lymphocytes; conditions: literature; cited from earlier work
compound,measurement,setting,value
"CSCC[C@H](NC(=O)[C@H](Cc1ccccc1)NC(=O)CNC(=O)CNC(=O)[C@@H](N)Cc1ccc(O)cc1)C(=O)O [MET-ENK, Tyr-Gly-Gly-Phe-Met]",cAMP production in NALM 6 cells,[1],enhancement in the production of cAMP
same,cAMP production in NALM 6 cells,[1]; listed as Methionine-enkephalin,potentiates cAMP accumulation
same,human lymphocyte / T cell migration,[2],stimulate human lymphocyte migration
same,"NK cell activity, lymphocyte proliferation, antibody production",[3],"diminish NK cell activity, decrease lymphocyte proliferation, and inhibit antibody production"
